This is an account of results in patent US10787446B2 (GENENTECH, INC., priority 2015, dated 2020).

This experiment has as its target T1, hNav1.7 and the β1 subunit (Homo sapiens, UniProt Q15858).
T1 construct: expressed in transfected cells
Put plainly: Tritiated compound competitive binding to membranes from cells heterologously expressing hNav1.7 and the β1 subunit (LBA). The following applies: competition with 100 pM [3H]compound, 18 h, room temperature; IC50 by 4 parameter logistic model. Here is the method:
Example 235 Tritiated Compound Binding to Membranes Isolated from Cells that Heterologously Express hNav1.7 and the β1 Subunit
Preparation of membranes containing recombinantly expressed sodium channels: Frozen recombinant cell pellets were thawed on ice and diluted to 4 times the cell pellet weight with ice cold 50 mM Tris HCl, pH 7.4 buffer. The cell suspensions were homogenized on ice using a motorized glass dounce homogeniser. Homogenates were further diluted 8.4 times with ice cold 50 mM Tris HCl, pH 7.4 buffer and then centrifuged at 200×g at 4° C. for 15 min. The supernatants were collected and centrifuged at 10000×g at 4° C. for 50 min. The pellets were then re-suspended in 100 mM NaCl, 20 mM Tris HCl, pH 7.4 buffer containing 1% v/v protease inhibitors (Calbiochem) and re-homogenized on ice. The homogenized membranes were then processed through a syringe equipped with a 26 gauge needle. Protein concentrations were determined by Bradford Assay and the membranes were stored at −80° C.
Radioligand Binding Studies:
Saturation experiments. A competitive NaV1.7 inhibitor having a methyl group was tritiated. Three tritiums were incorporated in place of methyl hydrogens to generate [^3H]compound. Binding of this radioligand was performed in 5 mL borosilicate glass test tubes at room temperature. Binding was initiated by adding membranes to increasing concentrations of [^3H]compound in 100 mM NaCl, 20 mM Tris HCl, pH 7.4 buffer containing 0.01% w/v bovine serum albumin (BSA) for 18 h. […] After 18 h, the reactants were filtered through GF/C glass fiber filters presoaked in 0.5% w/v polyethylene imine. […] [^3H]compound bound to filters was quantified by liquid scintillation counting.
Competitive Binding Experiments:
Binding reactions were performed in 96-well polypropylene plates at room temperature for 18 h. In 360 μL, membranes were incubated with 100 pM [^3H]compound and increasing concentrations of Test Compound. […] Reactions were transferred and filtered through 96-well glass fiber/C filter plates presoaked with 0.5% polyethylene imine. The filtered reactions were washed 5 times with 200 μL ice cold buffer containing 0.25% BSA. Bound radioactivity was determined by liquid scintillation counting.
Data Analysis: For saturation experiments, non-specific binding was subtracted from total binding to provide specific binding and these values were recalculated in terms of pmol ligand bound per mg protein. Saturation curves were constructed and dissociation constants were calculated using the single site ligand binding model: Beq=(Bmax*X)/(X+Kd), where Beq is the amount of ligand bound at equilibrium, Bmax is the maximum receptor density, Kd is the dissociation constant for the ligand, and X is the free ligand concentration. For competition studies percent inhibition was determined and IC50 values were calculated using a 4 parameter logistic model (% inhibition=(A+((B−A)/(1+((x/C)^D)))) using XLfit, where A and B are the maximal and minimum inhibition respectively, C is the IC50 concentration and D is the (Hill) slope.

T1 sequence (Q15858 whole entry): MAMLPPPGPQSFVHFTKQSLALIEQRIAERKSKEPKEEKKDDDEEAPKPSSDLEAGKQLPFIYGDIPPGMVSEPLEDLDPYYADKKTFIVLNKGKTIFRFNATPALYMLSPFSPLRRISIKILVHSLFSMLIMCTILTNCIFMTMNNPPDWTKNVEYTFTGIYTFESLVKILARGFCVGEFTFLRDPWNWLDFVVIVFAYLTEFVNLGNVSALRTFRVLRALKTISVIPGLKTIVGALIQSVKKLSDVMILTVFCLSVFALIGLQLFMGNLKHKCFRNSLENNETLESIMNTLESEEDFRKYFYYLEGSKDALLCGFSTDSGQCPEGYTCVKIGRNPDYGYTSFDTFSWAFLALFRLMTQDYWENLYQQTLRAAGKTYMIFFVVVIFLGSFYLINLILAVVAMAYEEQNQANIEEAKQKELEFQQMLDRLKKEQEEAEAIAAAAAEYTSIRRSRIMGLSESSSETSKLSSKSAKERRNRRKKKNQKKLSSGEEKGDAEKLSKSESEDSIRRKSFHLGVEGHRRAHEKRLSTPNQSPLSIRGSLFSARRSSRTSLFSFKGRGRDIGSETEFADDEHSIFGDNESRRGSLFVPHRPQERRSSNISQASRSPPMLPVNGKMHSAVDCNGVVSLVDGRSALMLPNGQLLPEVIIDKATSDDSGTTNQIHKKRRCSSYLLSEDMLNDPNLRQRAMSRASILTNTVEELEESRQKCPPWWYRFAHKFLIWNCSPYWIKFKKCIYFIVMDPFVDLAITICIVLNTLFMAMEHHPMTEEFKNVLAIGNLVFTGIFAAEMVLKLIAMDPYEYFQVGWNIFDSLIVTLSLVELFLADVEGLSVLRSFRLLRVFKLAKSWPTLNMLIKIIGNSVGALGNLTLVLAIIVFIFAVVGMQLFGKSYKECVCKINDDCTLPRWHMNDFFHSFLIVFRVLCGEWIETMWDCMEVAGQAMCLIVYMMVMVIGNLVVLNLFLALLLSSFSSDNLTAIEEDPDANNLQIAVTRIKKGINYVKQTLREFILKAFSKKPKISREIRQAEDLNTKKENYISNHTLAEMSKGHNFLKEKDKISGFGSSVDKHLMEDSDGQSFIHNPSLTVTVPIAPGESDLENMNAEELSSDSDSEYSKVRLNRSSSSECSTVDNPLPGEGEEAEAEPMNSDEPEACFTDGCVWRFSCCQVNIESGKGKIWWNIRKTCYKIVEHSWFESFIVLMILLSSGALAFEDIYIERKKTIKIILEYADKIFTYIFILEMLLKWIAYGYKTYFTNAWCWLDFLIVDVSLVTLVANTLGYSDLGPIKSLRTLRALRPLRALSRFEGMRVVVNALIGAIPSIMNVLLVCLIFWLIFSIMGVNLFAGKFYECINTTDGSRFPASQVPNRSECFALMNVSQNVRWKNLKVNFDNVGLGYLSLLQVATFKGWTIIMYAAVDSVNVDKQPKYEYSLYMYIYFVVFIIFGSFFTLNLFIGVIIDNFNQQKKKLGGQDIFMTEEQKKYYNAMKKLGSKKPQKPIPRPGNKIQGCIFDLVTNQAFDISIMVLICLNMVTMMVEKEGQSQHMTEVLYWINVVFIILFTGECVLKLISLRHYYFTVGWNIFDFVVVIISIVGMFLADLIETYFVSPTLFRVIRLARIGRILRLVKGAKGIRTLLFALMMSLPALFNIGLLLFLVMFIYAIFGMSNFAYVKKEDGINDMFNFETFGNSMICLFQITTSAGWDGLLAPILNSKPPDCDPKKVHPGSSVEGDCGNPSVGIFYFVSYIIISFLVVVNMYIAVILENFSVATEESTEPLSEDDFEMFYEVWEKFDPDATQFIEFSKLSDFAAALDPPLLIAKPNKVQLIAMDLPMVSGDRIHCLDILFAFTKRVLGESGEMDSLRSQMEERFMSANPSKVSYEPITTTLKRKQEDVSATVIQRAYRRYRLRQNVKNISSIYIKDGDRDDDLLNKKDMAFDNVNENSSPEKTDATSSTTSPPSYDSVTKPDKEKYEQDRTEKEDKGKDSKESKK
T1 sequence (Q07699 19-218 partner): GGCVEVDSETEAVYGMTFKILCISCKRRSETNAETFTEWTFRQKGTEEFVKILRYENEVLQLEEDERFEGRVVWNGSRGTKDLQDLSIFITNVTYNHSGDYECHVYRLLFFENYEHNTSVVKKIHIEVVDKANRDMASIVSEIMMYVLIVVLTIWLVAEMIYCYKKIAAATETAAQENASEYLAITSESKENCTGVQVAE

`CC[C@H]1CCCCN1[C@H](C)c1ccc(S(=O)(=O)Nc2ncns2)cc1Cl` (racemic) [Example 58, (±)-3-chloro-4-((R)-1-((S)-2-ethylpiperidin-1-yl)ethyl)-N-(1,2,4-thiadiazol-5-yl)benzenesulfonamide]: the “Nav1.7 (LBA)” value amounted to 5.3 µM.
Under `O=S(=O)(Nc1ncns1)c1ccc2c(c1)CC[C@@H]2N1CCCC[C@H]1c1ccccc1` (racemic) [Example 67, 1-(2-phenylpiperidin-1-yl)-N-(1,2,4-thiadiazol-5-yl)-2,3-dihydro-1H-indene-5-sulfonamide] stands 0.157 µM; under `O=S(=O)(Nc1ncns1)c1cc2c(cc1F)[C@@H](N1CCCC[C@@H]1c1ccc(F)cc1)CCO2` (racemic) [Example 86, (±)-(S)-6-fluoro-4-((R)-2-(4-fluorophenyl)piperidin-1-yl)-N-(1,2,4-thiadiazol-5-yl)chromane-7-sulfonamide], 0.00496 µM.
Under `O=S(=O)(Nc1ncns1)c1cc2c(cc1F)[C@@H](N1CCCC[C@H]1c1ccc(F)cc1)CCO2` (racemic) [Example 87, (±)-(S)-6-fluoro-4-((S)-2-(4-fluorophenyl)piperidin-1-yl)-N-(1,2,4-thiadiazol-5-yl)chromane-7-sulfonamide] stands 0.00726 µM.
Consider `O=S(=O)(Nc1ncns1)c1cc2c(cc1F)C(N1CCC(C(F)(F)F)CC1c1ccc(F)cc1)CCO2` (racemic) [Example 88, 6-fluoro-4-(cis-2-(4-fluorophenyl)-4-(trifluoromethyl)piperidin-1-yl)-N-(1,2,4-thiadiazol-5-yl)chromane-7-sulfonamide], for which the “Nav1.7 (LBA)” value came out at 0.00168 µM.
Under `O=S(=O)(Nc1nccs1)c1cc2c(cc1F)[C@H](N1CC[C@@H](C(F)(F)F)C[C@H]1c1ccc(F)cc1)CCO2` (racemic) [Example 93] stands 0.00333 µM; under `O=S(=O)(Nc1ncccn1)c1cc2c(cc1F)C(N1CCC(C(F)(F)F)CC1c1ccc(F)cc1)CCO2` (racemic) [Example 96, (±)-(R)-6-fluoro-4-((cis)-2-(4-fluorophenyl)-4-(trifluoromethyl)piperidin-1-yl)-N-(pyrimidin-2-yl)chromane-7-sulfonamide], 0.00994 µM; under `CC1(C)CCN(Cc2cc(F)c(S(=O)(=O)Nc3ncns3)cc2F)[C@H](c2ccccc2)C1` (single isomer, unassigned) [Example 2], 0.288 µM.
For the compound `CC1(C)CCN(Cc2cc(F)c(S(=O)(=O)Nc3ncns3)cc2F)[C@@H](c2ccccc2)C1` (single isomer, unassigned) [Example 3], the “Nav1.7 (LBA)” value was determined as 9.28 µM.
`C[C@@H]1CCN(Cc2cc(F)c(S(=O)(=O)Nc3ncns3)cc2F)[C@H](c2ccccc2)C1` (single isomer, unassigned) [Example 6]: the “Nav1.7 (LBA)” value is 0.17 µM.
Under `C[C@H]1CCN(Cc2cc(F)c(S(=O)(=O)Nc3ncns3)cc2F)[C@@H](c2ccccc2)C1` (single isomer, unassigned) [Example 7] stands 4.23 µM; under `O=S(=O)(Nc1ncns1)c1cc(F)c(CN2CCCC[C@H]2c2ccnnc2)cc1F` (single isomer, unassigned) [Example 11], 1.26 µM.
Then `Nc1cc([C@@H]2CCCCN2Cc2cc(F)c(S(=O)(=O)Nc3ncns3)cc2F)ccn1` (single isomer, unassigned) [Example 13], with 0.158 µM; and `Cn1nccc1[C@H]1CCCCN1Cc1cc(F)c(S(=O)(=O)Nc2ncns2)cc1F` (single isomer, unassigned) [Example 14], with 0.22 µM; and `Cn1nccc1[C@@H]1CCCCN1Cc1cc(F)c(S(=O)(=O)Nc2ncns2)cc1F` (single isomer, unassigned) [Example 15], with 9.36 µM.
Turning to `C[C@H](c1cc(F)c(S(=O)(=O)Nc2ncns2)cc1F)N1CCCC[C@@H]1c1ccccc1` (single isomer, unassigned) [Example 16], the “Nav1.7 (LBA)” value was found to be 3.65 µM.
Under `C[C@H](c1cc(F)c(S(=O)(=O)Nc2ncns2)cc1F)N1CCCC[C@H]1c1ccccc1` (single isomer, unassigned) [Example 18] stands 1.38 µM; under `C[C@@H]1CC[C@H](c2ccccc2)N(Cc2cc(F)c(S(=O)(=O)Nc3ncns3)cc2F)C1` (single isomer, unassigned) [Example 20], 1.56 µM; under `C[C@H]1CC[C@@H](c2ccccc2)N(Cc2cc(F)c(S(=O)(=O)Nc3ncns3)cc2F)C1` (single isomer, unassigned) [Example 21], 0.672 µM.
Under `C[C@H]1CCCN(Cc2cc(F)c(S(=O)(=O)Nc3ncns3)cc2F)[C@H]1c1ccccc1` (single isomer, unassigned) [Example 22] stands 1.55 µM; under `C[C@@H]1CCCN(Cc2cc(F)c(S(=O)(=O)Nc3ncns3)cc2F)[C@@H]1c1ccccc1` (single isomer, unassigned) [Example 23], 0.366 µM; under `O=S(=O)(Nc1ncns1)c1cc(F)c(CN2CCCC[C@H]2c2cn[nH]c2)cc1F` (single isomer, unassigned) [Example 25], 2.24 µM.
Then `O=S(=O)(Nc1ncns1)c1cc(F)c(CN2CCCC[C@H]2c2ccn[nH]2)cc1F` (single isomer, unassigned) [Example 27], with 0.118 µM; and `O=S(=O)(Nc1ncns1)c1cc(F)c(CN2CC[C@@H](F)C[C@H]2c2ccccc2)cc1F` (single isomer, unassigned) [Example 28], with 5.98 µM.
Take `O=S(=O)(Nc1ncns1)c1cc(F)c(CN2CC[C@H](F)C[C@@H]2c2ccccc2)cc1F` (single isomer, unassigned) [Example 29]: the “Nav1.7 (LBA)” value turned out to be 0.157 µM.
Under `O=S(=O)(Nc1ncns1)c1cc(F)c(CN2CC[C@@H](F)C[C@@H]2c2ccccc2)cc1F` (single isomer, unassigned) [Example 30] stands 1.71 µM; under `O=S(=O)(Nc1ncns1)c1cc(F)c(CN2CC[C@H](F)C[C@H]2c2ccccc2)cc1F` (single isomer, unassigned) [Example 31], 0.374 µM.
Under `O=S(=O)(Nc1ncns1)c1cc(F)c(CN2CCC(F)(F)C[C@H]2c2ccccc2)cc1F` (single isomer, unassigned) [Example 32] stands 0.18 µM; under `O=S(=O)(Nc1ncns1)c1cc(F)c(CN2CCC(F)(F)C[C@@H]2c2ccccc2)cc1F` (single isomer, unassigned) [Example 33], 4.16 µM; under `O=S(=O)(Nc1ncns1)c1cc(F)c(CN2CC[C@H](OC(F)(F)F)C[C@@H]2c2ccccc2)cc1F` (single isomer, unassigned) [Example 35], 0.0786 µM.
Then `O=S(=O)(Nc1ncns1)c1cc(F)c(CN2CC[C@H](OC(F)(F)F)C[C@H]2c2ccccc2)cc1F` (single isomer, unassigned) [Example 36], with 0.538 µM; and `O=S(=O)(Nc1ncns1)c1ccc2c(c1)OCC[C@@H]2N1CCCC[C@H]1c1ccccc1` (single isomer, unassigned) [Example 37], with 0.0254 µM.
For the compound `O=S(=O)(Nc1ncns1)c1ccc2c(c1)OCC[C@H]2N1CCCC[C@H]1c1ccccc1` (single isomer, unassigned) [Example 38], the “Nav1.7 (LBA)” value is 0.203 µM.
For the compound `O=S(=O)(Nc1ncns1)c1ccc2c(c1)OCC[C@@H]2N1CCC[C@H]1c1ccccc1` (single isomer, unassigned) [Example 39], the “Nav1.7 (LBA)” value turned out to be 0.274 µM.
Then `O=S(=O)(Nc1ncns1)c1ccc2c(c1)OCC[C@H]2N1CCC[C@H]1c1ccccc1` (single isomer, unassigned) [Example 40], with 0.798 µM; and `O=S(=O)(Nc1ncns1)c1ccc2c(c1)CCC[C@@H]2N1CCCC[C@@H]1c1ccccc1` (single isomer, unassigned) [Example 51], with 0.482 µM; and `O=S(=O)(Nc1ncns1)c1ccc2c(c1)CCC[C@@H]2N1CCCC[C@H]1c1ccccc1` (single isomer, unassigned) [Example 52], with 0.269 µM.
